The record followed here is ChEMBL document CHEMBL1201862, “PubChem BioAssay data set” (2004).

Activity calls are given as the source filed them. Bounds are passed on as bounds.

The target of assay [1] is Beta-2 adrenergic receptor (Homo sapiens, UniProt P07550). Description: beta2AR agonists driving receptor internalization, dose response, cell-based, FAP fluorogen, flow cytometry, cherry pick 1 (AID 588763). Type of assay: functional. (In general: In flow cytometry, cells or beads pass a laser one at a time.)
Assay [2] deals with Streptococcus sp. 'group A'. As to the kind of experiment: growth inhibition of control SK(-) GAS strain, dose response, counter-screen for streptokinase expression inhibitor project, luminescence, kanamycin, BacTiterGlo, confirmation (AID 1900). The assay is classed as functional, organism-based. On the technique in general: A counterscreen serves to expose hits that act by an unwanted route or on another target.

In the next assay the target is Genome polyprotein (dengue virus type 2, UniProt P29990). As to the kind of experiment: Dengue-2 NS5 methyltransferase inhibitors, primary screen, biochemical, confirmation dose response (AID 588689). Type of assay: functional.
For the next assay, the system named is Vero. Description: Vero cell cytotoxicity, cytotoxicity control for flavivirus capping enzyme inhibitors (AID 588742). To be noted: Chlorocebus sabaeus. Type of assay: functional.
The test system of a further assay is Streptococcus. Description: Group A Streptococcus viability loss, dose response, counter-screen for streptokinase expression inhibitor project, luminescence, BacTiterGlo (AID 1915).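 Also: potency for reduction of bacterial viability or growth.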 The assay is classed as functional, organism-based.
A further assay has as its system CHO. As to the kind of experiment: cytotoxicity in TLR9-MyD88 CHO cells, dose response, cytotoxicity control for TLR9-MyD88 binding inhibitor project, cell-based, luminescence (AID 588339).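 Also: CHO cells stably coexpressing TLR9 and MyD88 fusions from primary screen; compound exposure lasted 48 hours before viability readout.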 The assay is classed as functional, hamster. To be noted: Cricetulus griseus.
The target in assay [3] is T1, RNA-binding protein pos-1 (Caenorhabditis elegans, UniProt G5EF15).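 Also: purified POS-1 fused to maltose binding protein made in E. coli; potency of compounds blocking POS-1 binding to fluorescent RNA.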
T1 sequence (G5EF15 whole entry): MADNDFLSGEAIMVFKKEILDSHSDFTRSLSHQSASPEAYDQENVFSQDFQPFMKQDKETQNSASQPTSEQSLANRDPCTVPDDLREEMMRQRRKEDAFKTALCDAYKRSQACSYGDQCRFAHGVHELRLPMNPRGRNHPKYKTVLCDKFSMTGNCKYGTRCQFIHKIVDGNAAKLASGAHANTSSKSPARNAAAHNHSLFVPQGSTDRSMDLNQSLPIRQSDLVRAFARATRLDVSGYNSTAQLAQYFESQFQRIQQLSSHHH
As to the kind of experiment: inhibitors of POS-1/mex-3 RNA binding, dose response, biochemical, fluorescence polarization (AID 1964). (In fluorescence polarisation assays a small probe gives low polarisation when free and higher when bound to something large.)

In assay [4] the target is T2, Zinc finger protein mex-5 (Caenorhabditis elegans, UniProt Q9XUB2).
T2 sequence (Q9XUB2 whole entry): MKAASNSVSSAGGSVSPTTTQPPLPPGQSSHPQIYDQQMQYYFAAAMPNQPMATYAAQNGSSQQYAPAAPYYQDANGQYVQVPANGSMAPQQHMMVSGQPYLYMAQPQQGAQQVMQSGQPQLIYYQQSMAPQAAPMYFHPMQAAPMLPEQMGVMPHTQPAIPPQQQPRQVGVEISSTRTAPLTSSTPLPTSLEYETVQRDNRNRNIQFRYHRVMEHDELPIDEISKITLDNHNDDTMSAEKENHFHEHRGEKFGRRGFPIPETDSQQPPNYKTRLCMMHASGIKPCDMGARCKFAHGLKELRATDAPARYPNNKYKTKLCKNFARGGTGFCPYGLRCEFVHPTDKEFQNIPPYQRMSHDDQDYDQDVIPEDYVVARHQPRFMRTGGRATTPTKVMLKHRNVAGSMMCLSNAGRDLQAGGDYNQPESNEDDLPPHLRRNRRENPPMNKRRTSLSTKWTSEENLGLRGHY
Description: MEX-5/TCR-2 RNA interaction inhibitors, dose response, biochemical, C. elegans, fluorescence polarization (AID 1960).

For assay [5], the system named is HEK293. Description: cells. To be noted: Homo sapiens.
Assay [6] has as its system HEK293. Description: cells. To be noted: Homo sapiens. This is another data set of the same source.
Assay [7] concerns the target Voltage-gated inwardly rectifying potassium channel KCNH2 (Homo sapiens, UniProt Q12809). To be noted: Potency.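 Also: confirmatory quantitative high-throughput screen measuring inhibition of hERG channel activity.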
Another assay has as its target Cytochrome P450 3A4 (Homo sapiens, UniProt P08684).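 Also: CYP3A4 tested as one member of a cytochrome P450 panel screen.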
A further assay concerns the target Cytochrome P450 2D6 (Homo sapiens, UniProt P10635).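 Also: CYP2D6 member of a cytochrome P450 panel assay.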
In assay [8] the target is T3, High affinity choline transporter 1 (Homo sapiens, UniProt Q9GZV3).
T3 sequence (Q9GZV3 whole entry): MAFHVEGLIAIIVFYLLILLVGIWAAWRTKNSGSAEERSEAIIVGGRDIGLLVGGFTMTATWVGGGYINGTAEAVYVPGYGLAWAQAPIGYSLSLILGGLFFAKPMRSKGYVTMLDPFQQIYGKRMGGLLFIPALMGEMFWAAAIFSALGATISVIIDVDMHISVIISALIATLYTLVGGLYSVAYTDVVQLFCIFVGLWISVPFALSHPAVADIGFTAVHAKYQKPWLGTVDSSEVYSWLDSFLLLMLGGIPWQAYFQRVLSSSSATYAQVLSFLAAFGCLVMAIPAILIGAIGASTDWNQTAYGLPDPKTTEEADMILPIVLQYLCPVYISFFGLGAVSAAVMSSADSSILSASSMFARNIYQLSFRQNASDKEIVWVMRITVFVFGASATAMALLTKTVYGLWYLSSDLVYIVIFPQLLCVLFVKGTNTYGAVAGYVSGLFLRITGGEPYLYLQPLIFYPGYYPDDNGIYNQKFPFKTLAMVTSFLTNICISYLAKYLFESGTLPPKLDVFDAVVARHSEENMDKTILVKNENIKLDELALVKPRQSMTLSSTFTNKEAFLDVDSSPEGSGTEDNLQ
Description: CHT inhibitors, dose response, cell-based, 5-point CRC, membrane potential dye (AID 504840). Type of assay: functional.

The target in assay [9] is T4, Corticotropin-releasing factor receptor 2/Corticotropin-releasing factor-binding protein (Homo sapiens, UniProt P24387+Q13324).
T4 sequence (Q13324 whole entry): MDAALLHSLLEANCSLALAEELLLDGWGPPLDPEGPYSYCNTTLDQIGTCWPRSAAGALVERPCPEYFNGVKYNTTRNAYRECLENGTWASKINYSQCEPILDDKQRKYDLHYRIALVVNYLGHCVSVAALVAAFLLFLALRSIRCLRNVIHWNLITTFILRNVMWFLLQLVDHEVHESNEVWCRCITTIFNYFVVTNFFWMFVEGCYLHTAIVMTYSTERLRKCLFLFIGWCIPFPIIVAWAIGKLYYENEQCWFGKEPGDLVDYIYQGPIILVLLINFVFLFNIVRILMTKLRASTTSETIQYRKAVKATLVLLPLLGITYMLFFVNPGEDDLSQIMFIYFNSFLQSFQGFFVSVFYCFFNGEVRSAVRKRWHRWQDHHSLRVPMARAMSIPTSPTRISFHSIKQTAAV
T4 sequence (P24387 whole entry): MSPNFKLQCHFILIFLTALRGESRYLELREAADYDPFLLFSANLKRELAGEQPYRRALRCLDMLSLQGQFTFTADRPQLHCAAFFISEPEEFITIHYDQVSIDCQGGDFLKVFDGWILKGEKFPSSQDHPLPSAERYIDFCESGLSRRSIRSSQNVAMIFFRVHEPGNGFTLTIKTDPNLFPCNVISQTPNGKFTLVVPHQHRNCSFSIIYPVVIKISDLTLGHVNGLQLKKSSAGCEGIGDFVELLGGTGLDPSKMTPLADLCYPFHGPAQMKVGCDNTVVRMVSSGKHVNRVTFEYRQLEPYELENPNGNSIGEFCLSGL
Description: activators of CRF receptor 2 with binding protein – uHTS hits, confirmation (AID 602473). Type of assay: functional. To be noted: read-out: EC50_Mean.

A further assay addresses T5, Cytochrome P450 1A2 (Homo sapiens, UniProt P05177).
T5 sequence (P05177 whole entry): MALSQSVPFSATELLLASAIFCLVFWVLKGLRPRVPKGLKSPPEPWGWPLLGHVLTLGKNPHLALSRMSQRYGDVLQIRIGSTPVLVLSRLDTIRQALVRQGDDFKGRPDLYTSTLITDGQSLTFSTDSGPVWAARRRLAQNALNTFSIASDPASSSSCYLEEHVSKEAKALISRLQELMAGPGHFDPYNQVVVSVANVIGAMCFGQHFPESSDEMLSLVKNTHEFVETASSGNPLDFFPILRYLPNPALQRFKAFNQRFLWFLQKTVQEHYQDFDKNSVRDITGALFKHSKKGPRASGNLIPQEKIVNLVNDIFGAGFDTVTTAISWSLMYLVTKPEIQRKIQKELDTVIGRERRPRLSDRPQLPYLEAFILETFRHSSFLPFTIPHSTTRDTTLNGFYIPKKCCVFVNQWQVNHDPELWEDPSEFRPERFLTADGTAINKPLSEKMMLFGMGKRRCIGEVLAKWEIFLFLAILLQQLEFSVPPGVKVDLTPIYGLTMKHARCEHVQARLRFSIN

Assay [10] has as its target T6, Carboxy-terminal domain RNA polymerase II polypeptide A small phosphatase 1 (Homo sapiens, UniProt Q9GZU7).
T6 sequence (Q9GZU7 whole entry): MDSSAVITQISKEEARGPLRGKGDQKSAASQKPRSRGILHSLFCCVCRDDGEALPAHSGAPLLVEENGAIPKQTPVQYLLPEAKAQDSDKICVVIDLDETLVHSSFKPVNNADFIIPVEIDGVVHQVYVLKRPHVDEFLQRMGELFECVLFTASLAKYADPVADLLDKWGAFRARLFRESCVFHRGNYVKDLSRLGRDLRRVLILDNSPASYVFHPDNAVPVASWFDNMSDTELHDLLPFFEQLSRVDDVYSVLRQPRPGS
As to the kind of experiment: inhibitors of CTDSP1, concentration-response testing, biochemical assay, absorbance-based, actives from ultra-high-throughput screening (AID 540297). The assay is classed as functional.

Sequence of Beta-2 adrenergic receptor (P07550 whole entry): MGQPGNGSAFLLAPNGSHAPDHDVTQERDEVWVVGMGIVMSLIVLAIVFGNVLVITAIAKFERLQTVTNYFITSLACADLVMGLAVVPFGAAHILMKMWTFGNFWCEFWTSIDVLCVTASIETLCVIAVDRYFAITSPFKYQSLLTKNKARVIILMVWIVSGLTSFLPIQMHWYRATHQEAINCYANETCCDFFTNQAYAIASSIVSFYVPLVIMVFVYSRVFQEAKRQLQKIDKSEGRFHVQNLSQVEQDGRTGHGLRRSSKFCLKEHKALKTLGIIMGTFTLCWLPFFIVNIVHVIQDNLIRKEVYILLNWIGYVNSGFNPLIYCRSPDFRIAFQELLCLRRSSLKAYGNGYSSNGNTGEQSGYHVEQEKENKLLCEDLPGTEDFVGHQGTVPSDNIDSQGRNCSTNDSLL
Sequence of Genome polyprotein (P29990 2492-3391 limits assumed): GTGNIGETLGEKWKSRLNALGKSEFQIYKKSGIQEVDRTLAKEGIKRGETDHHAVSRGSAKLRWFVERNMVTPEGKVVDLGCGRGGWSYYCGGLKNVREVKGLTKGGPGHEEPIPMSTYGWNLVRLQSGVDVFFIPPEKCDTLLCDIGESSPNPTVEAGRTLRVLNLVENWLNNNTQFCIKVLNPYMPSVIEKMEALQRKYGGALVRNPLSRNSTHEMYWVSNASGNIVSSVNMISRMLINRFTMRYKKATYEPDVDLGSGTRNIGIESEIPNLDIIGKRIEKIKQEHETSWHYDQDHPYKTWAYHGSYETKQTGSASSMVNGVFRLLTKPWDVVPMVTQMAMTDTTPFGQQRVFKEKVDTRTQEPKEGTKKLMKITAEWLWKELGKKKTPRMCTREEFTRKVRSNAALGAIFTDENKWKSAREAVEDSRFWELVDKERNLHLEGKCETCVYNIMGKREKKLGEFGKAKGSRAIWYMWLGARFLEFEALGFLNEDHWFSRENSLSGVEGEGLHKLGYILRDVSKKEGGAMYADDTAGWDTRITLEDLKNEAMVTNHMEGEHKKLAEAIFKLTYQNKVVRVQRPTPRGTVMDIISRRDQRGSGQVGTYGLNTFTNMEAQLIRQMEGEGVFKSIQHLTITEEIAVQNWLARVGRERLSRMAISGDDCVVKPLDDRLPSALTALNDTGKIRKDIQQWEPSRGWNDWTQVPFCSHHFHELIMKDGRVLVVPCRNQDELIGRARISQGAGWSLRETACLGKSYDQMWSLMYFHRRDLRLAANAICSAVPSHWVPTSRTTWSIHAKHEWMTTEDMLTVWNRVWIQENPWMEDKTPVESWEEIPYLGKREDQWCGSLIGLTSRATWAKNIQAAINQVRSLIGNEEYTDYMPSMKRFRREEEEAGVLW
Sequence of Cytochrome P450 3A4 (P08684 whole entry): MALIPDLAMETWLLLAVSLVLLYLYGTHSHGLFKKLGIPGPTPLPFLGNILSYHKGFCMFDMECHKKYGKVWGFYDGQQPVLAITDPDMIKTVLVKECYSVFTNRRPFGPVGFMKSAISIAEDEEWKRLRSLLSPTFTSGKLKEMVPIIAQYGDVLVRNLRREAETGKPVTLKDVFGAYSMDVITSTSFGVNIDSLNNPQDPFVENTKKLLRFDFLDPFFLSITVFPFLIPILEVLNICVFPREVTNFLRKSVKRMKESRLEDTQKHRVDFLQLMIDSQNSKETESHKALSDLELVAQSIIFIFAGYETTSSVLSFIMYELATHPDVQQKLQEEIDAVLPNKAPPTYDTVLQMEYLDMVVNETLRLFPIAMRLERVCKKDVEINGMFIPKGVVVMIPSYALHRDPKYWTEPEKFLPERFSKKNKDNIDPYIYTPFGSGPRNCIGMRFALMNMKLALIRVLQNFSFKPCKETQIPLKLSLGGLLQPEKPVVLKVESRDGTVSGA
Sequence of Voltage-gated inwardly rectifying potassium channel KCNH2 (Q12809 whole entry): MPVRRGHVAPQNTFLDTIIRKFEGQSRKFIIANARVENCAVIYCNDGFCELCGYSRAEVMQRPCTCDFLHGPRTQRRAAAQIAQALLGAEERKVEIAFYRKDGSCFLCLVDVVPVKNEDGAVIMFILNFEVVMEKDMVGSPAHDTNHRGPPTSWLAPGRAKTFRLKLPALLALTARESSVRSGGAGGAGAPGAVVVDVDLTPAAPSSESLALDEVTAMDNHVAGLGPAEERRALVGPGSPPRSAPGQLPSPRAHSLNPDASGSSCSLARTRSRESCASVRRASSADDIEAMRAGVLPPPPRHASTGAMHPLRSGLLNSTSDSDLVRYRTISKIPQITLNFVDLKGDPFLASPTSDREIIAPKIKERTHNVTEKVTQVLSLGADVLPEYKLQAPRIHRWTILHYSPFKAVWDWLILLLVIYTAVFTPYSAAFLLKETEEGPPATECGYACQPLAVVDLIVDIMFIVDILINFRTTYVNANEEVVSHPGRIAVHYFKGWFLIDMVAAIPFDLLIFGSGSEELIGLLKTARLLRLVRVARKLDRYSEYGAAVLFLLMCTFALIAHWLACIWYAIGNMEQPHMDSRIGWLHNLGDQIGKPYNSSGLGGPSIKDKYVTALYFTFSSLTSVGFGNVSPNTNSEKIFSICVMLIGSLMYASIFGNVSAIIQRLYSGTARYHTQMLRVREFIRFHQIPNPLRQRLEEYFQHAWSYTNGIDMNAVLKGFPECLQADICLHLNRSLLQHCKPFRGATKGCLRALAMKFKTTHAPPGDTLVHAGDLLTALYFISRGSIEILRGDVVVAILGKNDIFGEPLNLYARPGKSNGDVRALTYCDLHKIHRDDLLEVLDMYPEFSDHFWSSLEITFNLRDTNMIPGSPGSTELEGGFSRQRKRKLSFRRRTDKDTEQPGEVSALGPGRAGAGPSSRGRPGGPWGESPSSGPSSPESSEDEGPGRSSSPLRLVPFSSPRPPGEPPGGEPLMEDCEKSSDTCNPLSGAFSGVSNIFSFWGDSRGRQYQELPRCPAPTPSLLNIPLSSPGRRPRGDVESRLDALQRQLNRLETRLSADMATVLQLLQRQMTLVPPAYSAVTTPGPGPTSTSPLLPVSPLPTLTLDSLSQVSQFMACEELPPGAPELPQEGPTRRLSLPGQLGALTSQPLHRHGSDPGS
Sequence of Cytochrome P450 2D6 (P10635 whole entry): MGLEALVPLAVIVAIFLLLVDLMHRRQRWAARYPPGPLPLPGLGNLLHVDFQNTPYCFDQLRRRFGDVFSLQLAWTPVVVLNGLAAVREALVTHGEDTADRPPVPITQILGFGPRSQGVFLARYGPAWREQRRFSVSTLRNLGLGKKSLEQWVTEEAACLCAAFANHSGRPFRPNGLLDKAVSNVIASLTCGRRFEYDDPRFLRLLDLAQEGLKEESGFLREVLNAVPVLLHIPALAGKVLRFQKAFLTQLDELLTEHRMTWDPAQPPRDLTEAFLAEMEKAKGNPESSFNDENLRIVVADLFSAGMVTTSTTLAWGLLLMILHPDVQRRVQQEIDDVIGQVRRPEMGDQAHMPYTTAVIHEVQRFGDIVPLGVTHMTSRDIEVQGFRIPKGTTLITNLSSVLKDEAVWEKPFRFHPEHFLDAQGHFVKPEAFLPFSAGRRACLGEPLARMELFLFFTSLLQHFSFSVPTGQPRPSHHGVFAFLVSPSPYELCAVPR

`CC(C)=CCC(C)(C)C1OCCN1C(=O)c1ccccc1` (stereo unspecified): the EC50 in [1] is 3.3 µM (active).
The same measure, in the same setting: to `O=C(c1ccc(OC2CCN(Cc3ccc(C(F)(F)F)cc3)CC2)cc1)N1CCCCC1` belongs 2.59 µM (active).
As usually defined, the IC50 is the concentration that inhibits the measured activity by half. As a reminder, the CC50 is the concentration giving 50% cytotoxicity. Turning to `O=C(O)CN1C(=O)/C(=C\c2cc(Br)ccc2OCc2ccc(Cl)cc2Cl)SC1=S`, the EC50 was 1.36 µM (active) in assay [2] and 1.95 µM (active) in the assay on Streptococcus. Further, the IC50 on Genome polyprotein is 28.8 µM (active). Besides, the 50% cytotoxic concentration (CC50) in the assay with Vero was > 40 µM (active).
As for `Nc1ccc2nc(-c3ccccc3)c(-c3ccccc3)nc2c1`, the IC50 in the assay on CHO was > 49.7 µM (inactive). Further, the EC50 in [3] was 23.9 µM (inconclusive); in [4] it was 24.9 µM (active); with HEK293 [5], > 59.6 µM (inactive); with HEK293 [6], > 59.6 µM (inactive).
A word on the AC50: it is the midpoint of the concentration-response curve, whichever way the signal moves. As to `Cn1cnc2c(NC3CCCC3)ncnc21`, the half-maximal activity concentration (AC50) in [7] is 1.41 µM (inconclusive); at Cytochrome P450 3A4, 25.1 µM (inconclusive); at Cytochrome P450 2D6 it was 20 µM (inconclusive).
`O=C(Nc1cc(S(=O)(=O)N2CCCCC2)ccc1O)c1ccccc1NS(=O)(=O)c1ccc(F)cc1`: the results for the half-inhibitory concentration (IC50) (in assay [8]; on Genome polyprotein) were 13.2 µM (active) and 67.9 µM (active), respectively. Besides, the EC50 in assay [9] was 1.83 µM (active). Moreover, the CC50 in the assay on Vero was > 40 µM (active).
As to `O=C(Nc1cccc(-c2nc3ncccc3o2)c1)c1sc2cc(Cl)ccc2c1Cl`, the half-maximal activity concentration (AC50) at Cytochrome P450 1A2 is 25.1 µM (inconclusive). In addition, the EC50 in assay [1] was 7.22 µM (inactive). Also, in [10], the IC50 is 7.21 µM (active).
